According to patent US20250206719A1, “ALBICIDIN DERIVATIVES, THEIR USE AND SYNTHESIS” (TECHNISCHE UNIVERSITÄT BERLIN, priority 2022, published 2025):
Values after ≈ are worked out from the molar mass of the structure shown.

What was measured:
[1] = system: S. typhimurium TA100; assay: MIC microdilution assay, S. typhimurium TA100; type: cell-based; conditions: Salmonella enterica, MHBII medium, 37° C., 20 h, test range 64 to 0.008 μg/mL, read-out: MIC S. typhimurium TA100
Protocol: (§1) The tests were performed using the micro dilution method.
(§2) The determination of MIC values was performed according to the ninth edition of the Approved Standard M07-A9 (CLSI. Methods for Dilution Antimicrobial Susceptibility Tests for Bacteria That Grow Aerobically; Approved Standard-Ninth Edition. CLSI document M07-A9. Wayne, PA: Clinical and Laboratory Standards Institute; 2012.)
(§3) The test was carried out for different bacterial strains (E. coli DSM 1116, E. coli BW25113 [gram negative], B. subtilis DSM 10 [gram positive], M. luteus DSM 1790 [gram positive], S. typhimurium TA100 [gram negative]) and M. phlei DSM 750. 20 μL of cryo stock of each strain were inoculated in 20 mL of LB media (Lysogeny broth: 10 g/L peptone, 5 g/L yeast extract, 5 g/L NaCl) followed by incubation over night at 37° C., 200 rpm. The test inoculum was adjusted by the 0.5 McFarland Standard (OD625 from 0.08 to 0.1). Within 15 min of preparation, the adjusted inoculum suspension was diluted in MHBII media (BBL TM Mueller-Hinton Broth II, Becton, Dickinson and Company, New Jersey/USA) so that each well contained approximately 5×10^5 CFU/mL in a final volume of 100 μL. 95 μL of the inoculum were applied per well and 5 μL of the (diluted) antibiotic substance were added.
(§4) Previously the dry antibiotic compounds were dissolved in DMSO (100%) with a concentration of 2560 μg/mL and the resulting stock solutions were further diluted in DMSO (100%). 5 μL of each antibiotic dilution were applied to the microdilution tray to reach final concentrations of 64 μg/mL to 0.008 μg/mL. One row of each well plate was left as a growth control without antibiotic substances and another row of the microdilution tray was used as sterility control (only MHB II-media). The antimicrobial effect of the solvent (DMSO) was tested by adding 5 μL DMSO to several wells without antibiotics. Purity check and cell titer control were performed according to International Standard M07-A9 on Mueller-Hinton II Agar (Mueller Hinton II Broth, 15 g/L agar-agar). Both microdilution trays and agar plates were incubated at 37° C. for 20 h and subsequently analyzed visually.

[2] = system: E. coli BW25113; assay: MIC determination (medium: MHBII/human serum (1:1)); type: cell-based; conditions: Escherichia coli; E. coli BW25113; MHBII/human serum 1:1; test range 8 to 0.016 μg/ml; read-out: MIC E. coli + 50% human serum
Protocol: The test was carried out for bacterial strain, E. coli BW25113 (Gram-negative).
First, 20 μl of glycerol stock of the strain was inoculated in 20 mL LB followed by incubation overnight at 37° C., 200 r.p.m.
The serum was subjected to a heat shock (56° C./30 min in a water bath) before use.
The test inoculum was adjusted by the 0.5 McFarland Standard, so that each well contained approximately 5×10^5 c.f.u. mL^−1 in a final volume of 100 μL. For the adjustment of the test inoculum, MHBII medium and the human serum were used in a mixing ratio of 1:1.
For dilutions, the dry powders were dissolved in DMSO with a concentration of 2.56 mg mL-1 and serially diluted in DMSO (100%). Initial solution and serial dilutions of Ciprofloxacin were prepared in 0.1 N HCl.
Then, 95 μL of the adjusted inoculum was applied per well and 5 μl of each antibiotic dilution was applied to the microdilution tray to reach final concentrations of 8 to 0.016 μg ml^−1.
The antimicrobial effect of the solvent (DMSO or 0.1 N HCL) was tested by adding 5 μL DMSO or 0.1 N HCL to several wells.
One row of each well plate served as a growth control without antibiotic substances, and another row of the microdilution tray served as sterility control (MHB II-media).

[3] = system: E. coli BW25113; assay: MIC microdilution assay, E. coli BW25113; type: cell-based; conditions: Escherichia coli, BW25113; MHBII medium, 37° C., 20 h; test range 64 to 0.008 μg/mL; read-out: MIC E. coli BW25113
Protocol: as §1, §2, §3, §4

[4] = system: E. coli DSM 1116; assay: MIC microdilution assay, E. coli DSM 1116; type: cell-based; conditions: Escherichia coli, DSM1116; MHBII medium, 37° C., 20 h; test range 64 to 0.008 μg/mL; read-out: MIC E. coli DSM1116
Protocol: as §1, §2, §3, §4

[5] = system: M. phlei DSM 750; assay: MIC microdilution assay, M. phlei DSM 750; type: cell-based, Mycobacterium phlei; conditions: Mycolicibacterium phlei, DSM750; MHBII medium, 37° C., 20 h; test range 64 to 0.008 μg/mL; read-out: MIC M. phlei DSM 750
Protocol: as §1, §2, §3, §4

[6] = system: Bacillus subtilis DSM10; assay: MIC microdilution assay, B. subtilis DSM 10; type: cell-based; conditions: DSM10, MHBII medium, 37° C., 20 h, test range 64 to 0.008 μg/mL, read-out: MIC B. subtilis DSM10
Protocol: as §1, §2, §3, §4

[7] = system: Micrococcus luteus DSM1790; assay: MIC microdilution assay, M. luteus DSM 1790; type: cell-based; conditions: DSM1790, MHBII medium, 37° C., 20 h, test range 64 to 0.008 μg/mL, read-out: MIC M. luteus DSM 1790
Protocol: as §1, §2, §3, §4

SMILES	MIC [1]	MIC [2]	MIC [3]	MIC [4]	MIC [5]	MIC [6]	MIC [7]
COc1c(NC(=O)c2ccc(NC(=O)c3ccc(NC(=O)[C@H](Cc4c[nH]nn4)NC(=O)c4ccc(NC(=O)c5c[nH]c6ccccc6c5=O)cc4)cn3)c(OC)c2O)ccc(C(=O)O)c1O [Compound 4]	≤ 0.016 µg/mL	2 µg/mL	–	–	–	–	–
CCn1cc(C(=O)Nc2ccc(C(=O)N[C@@H](Cc3c[nH]nn3)C(=O)Nc3ccc(C(=O)Nc4ccc(C(=O)Nc5ccc(C(=O)O)c(O)c5OC)c(O)c4OC)nc3)cc2)c(=O)c2cc3c(cc21)OCO3 [Compound 6]	≤ 0.016 µg/mL	0.5 µg/mL	–	–	–	–	–
COc1c(NC(=O)c2ccc(NC(=O)c3ccc(NC(=O)[C@H](Cc4c[nH]nn4)NC(=O)c4ccc(NC(=O)c5ccc6nccnc6c5)cc4)cn3)c(OC)c2O)ccc(C(=O)O)c1O [Compound 7]	≤ 0.016 µg/mL	1 µg/mL	–	–	–	–	–
COc1c(NC(=O)c2ccc(NC(=O)c3ccc(NC(=O)C(Cc4c[nH]nn4)NC(=O)c4ccc(NC(=O)c5ccc6ncsc6c5)cc4)cn3)c(OC)c2O)ccc(C(=O)O)c1O (stereo not shown) [Compound 8]	≤ 0.016 µg/mL	0.5 µg/mL	≤ 0.016 µg/mL	≤ 0.016 µg/mL	2 µg/mL (≈ 2.26 µM)	–	–
COc1c(NC(=O)c2ccc(NC(=O)c3ccc(NC(=O)C(Cc4c[nH]nn4)NC(=O)c4ccc(NC(=O)c5ccc6nc[nH]c6c5)cc4)cn3)c(OC)c2O)ccc(C(=O)O)c1O (stereo not shown) [Compound 9]	0.125 µg/mL (≈ 0.144 µM)	≥ 8 µg/mL	0.125 µg/mL (≈ 0.144 µM)	0.125 µg/mL (≈ 0.144 µM)	8 µg/mL (≈ 9.2 µM)	2 µg/mL (≈ 2.3 µM)	2 µg/mL (≈ 2.3 µM)
CCn1cc(C(=O)Nc2ccc(C(=O)N[C@@H](Cc3c[nH]nn3)C(=O)Nc3ccc(C(=O)Nc4ccc(C(=O)Nc5ccc(C(=O)O)c(O)c5OC)c(O)c4OC)nc3)cc2)c(=O)c2ccc(C)nc21 [Compound 11]	≤ 0.016 µg/mL	8 µg/mL	–	–	–	–	–
COc1c(NC(=O)c2ccc(NC(=O)c3ccc(NC(=O)C(Cc4c[nH]nn4)NC(=O)c4ccc(NCc5ccc6ncccc6c5)cc4)cn3)c(OC)c2O)ccc(C(=O)O)c1O (stereo not shown) [Compound 15]	0.031 µg/mL (≈ 0.0358 µM)	4 to 8 µg/mL	0.031 µg/mL (≈ 0.0358 µM)	0.063 µg/mL (≈ 0.0727 µM)	2 µg/mL (≈ 2.31 µM)	0.25 to 0.5 µg/mL (≈ 0.288 to 0.577 µM)	0.125 µg/mL (≈ 0.144 µM)
COc1c(NC(=O)c2ccc(NC(=O)c3ccc(NC(=O)C(Cc4c[nH]nn4)NC(=O)c4ccc(NC(=O)c5ccc6nn[nH]c6c5)cc4)cn3)c(OC)c2O)ccc(C(=O)O)c1O (stereo not shown) [Compound 16]	0.125 µg/mL (≈ 0.144 µM)	8 µg/mL	0.031 µg/mL (≈ 0.0356 µM)	0.063 µg/mL (≈ 0.0723 µM)	4 to 8 µg/mL (≈ 4.59 to 9.19 µM)	0.5 to 1 µg/mL (≈ 0.574 to 1.15 µM)	1 µg/mL (≈ 1.15 µM)
